≈ marks a conversion by molar mass, not a printed value. Like-named read-outs stand apart in the source and are kept apart here. Where only a bound is given, the exact number is not on record here.

Data set [1] addresses T1, rat sEH (Rattus norvegicus, UniProt P80299).
T1 construct: made in house; host or cells: insect High Five cells (recombinant baculovirus)
T1 sequence (P80299 1-554): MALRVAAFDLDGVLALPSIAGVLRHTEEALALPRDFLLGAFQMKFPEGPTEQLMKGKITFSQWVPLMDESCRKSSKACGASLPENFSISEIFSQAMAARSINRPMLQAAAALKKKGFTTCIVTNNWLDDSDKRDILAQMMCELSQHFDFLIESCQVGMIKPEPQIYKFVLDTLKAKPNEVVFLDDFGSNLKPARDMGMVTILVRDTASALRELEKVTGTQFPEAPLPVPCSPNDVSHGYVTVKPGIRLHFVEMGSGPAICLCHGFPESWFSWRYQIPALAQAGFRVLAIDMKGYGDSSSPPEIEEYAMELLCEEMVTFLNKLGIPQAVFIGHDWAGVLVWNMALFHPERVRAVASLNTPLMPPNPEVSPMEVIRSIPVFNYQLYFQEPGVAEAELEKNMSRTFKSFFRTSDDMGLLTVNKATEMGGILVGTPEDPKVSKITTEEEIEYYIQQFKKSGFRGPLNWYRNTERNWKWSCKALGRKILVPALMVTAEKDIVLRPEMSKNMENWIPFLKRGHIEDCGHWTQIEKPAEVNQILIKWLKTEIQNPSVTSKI
The experiment in a line: sEH inhibition by fluorescent assay (CMNPC assay), rat enzyme. It is filed as biochemical. The note with it: CMNPC substrate, recombinant enzyme. The procedure:
(§1) Recombinant sEH was produced in insect High Five cells using recombinant baculovirus expression vectors, and purified by affinity chromatography as reported previously. The enzyme appeared as a single band (0.3 μg loading) with an estimated purity of more than 95% by Coomassie Brilliant Blue staining following SDS-PAGE separation. The final recombinant sEH preparations had no esterase or glutathione S-transferase activities, which interfere with the CMNPC assay as described below.
(§2) IC50 values were determined as described previously using cyano (2-methoxynaphthalen-6-yl) methyl trans-(3-phenyl-oxyran-2-yl) methyl carbonate (CMNPC) as a fluorescent substrate. Recombinant sEH (0.96 nM) was incubated with inhibitors for 5 min in 25 mM bis-Tris/HCl buffer (pH 7.0) containing 0.1 mg/mL of BSA at 30°C prior to substrate introduction ([S] = 5 μM). Activity was measured by determining the appearance of the 6-methoxy-2-naphthaldehyde with an excitation wavelength of 330 nm and an emission wavelength of 465 nm for 10 min.

Data set [2] has as its target T2, human sEH (Homo sapiens, UniProt P34913).
T2 construct: made in house; host or cells: insect High Five cells (recombinant baculovirus)
T2 sequence (P34913 1-555): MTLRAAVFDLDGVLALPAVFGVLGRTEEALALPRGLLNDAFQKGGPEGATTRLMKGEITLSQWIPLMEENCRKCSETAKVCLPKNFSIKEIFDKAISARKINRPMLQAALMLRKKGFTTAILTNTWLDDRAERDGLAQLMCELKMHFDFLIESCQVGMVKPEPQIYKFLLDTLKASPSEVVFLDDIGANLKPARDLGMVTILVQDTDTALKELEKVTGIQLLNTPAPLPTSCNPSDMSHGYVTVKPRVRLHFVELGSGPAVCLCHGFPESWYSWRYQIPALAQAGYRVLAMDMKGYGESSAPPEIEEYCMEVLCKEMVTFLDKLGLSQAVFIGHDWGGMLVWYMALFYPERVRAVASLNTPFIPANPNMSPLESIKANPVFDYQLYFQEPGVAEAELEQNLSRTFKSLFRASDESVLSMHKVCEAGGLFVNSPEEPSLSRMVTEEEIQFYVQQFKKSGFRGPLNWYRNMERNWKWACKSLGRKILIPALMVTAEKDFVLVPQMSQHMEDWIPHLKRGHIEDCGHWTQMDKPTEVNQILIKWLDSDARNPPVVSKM
Nature of the data set: sEH inhibition by fluorescent assay (CMNPC assay), human enzyme. The format is biochemical. As for the experimental part: as §1, §2

The nature of data set [3]: Pharmacokinetics after oral gavage (cassette dosing). The format is in vivo. The note with it: mice; for blood level of demethoxy metabolite after oral compound 3: compound 3 10 mg/kg oral, LOQ < 9.8 nM in blood. The procedure:
(§3) Pharmacokinetic profiles of the inhibitors were determined by following the procedure described previously in literature with some modifications. Male Swiss Webster mice (7 weeks old, 24–30 g) were purchased from Charles River Laboratories. Inhibitors were dissolved in polyethylene glycol (average molecular weight: 300) to give a clear solution for oral administration. […] Blood (10 μL) was collected from the tail vein using a pipet tip rinsed with EDTA. The blood samples were prepared according to the methods detailed previously, and blood samples were analyzed by LC-MS/MS.

Data set [4] is described as follows: Blood concentration during the pain assay after dermal treatment. The format is in vivo. The note with it: rat, after dermal treatment of compound 3 (6 mg/paw). The procedure:
Male Sprague-Dawley rats weighing 225–250 g were obtained from Charles River Laboratories and maintained in the UC Davis animal housing facility with ad libitum water and food on a 12 h/12 h light-dark cycle. Behavioral nociceptive testing was conducted by assessing mechanical withdrawal threshold using an electronic von Frey anesthesiometer apparatus (IITC, Woodland Hills, CA) as described previously. The analgesic effect of compound 3 was tested using the intraplantar carrageenan-induced local inflammatory pain model. Following baseline measurements, carrageenan (50 μL, 1% solution of carrageenan in ddH2O) was administered into the plantar area of one hind paw. At 4 h post administration of carrageenan, responses were measured, and immediately after these measurement, 3 (3% in PEG400/Vanicream™ (Pharmaceutical Specialties, Inc. Rochester, MN) = 3:7, 6 mg of compound/paw), the synthetic sEH inhibitor triclocarban (TCC, 3%), or the vehicle (200 μL of PEG400/Vanicream™) was administered onto the inflamed paw by topical application. The cream was thoroughly massaged across the entire hind paw surface over a 1–2 min period. Subsequently, the ability of these treatments to reduce the carrageenan-induced inflammatory pain was monitored over the course of 4 h.
as §3

A short description of data set [5]: Solubility. The format is physicochemical.
Data set [6] concerns carrageenan-induced inflammatory pain. Also on record: method as in Rose et al., (2010). The note with it: rat, intraplantar, morphine 10 µg/paw, TPCU 10 ng/paw; ref Rose et al., (2010); cited from earlier work.
Where [7] appears, read: CMNPC substrate, recombinant enzyme, read-out: Human sEH IC50.
Where [8] appears, read: S2 Table, unit inferred, read-out: hsEH IC50.

One may read the IC50 as the concentration that gives 50% inhibition. Regarding `COc1ccc(CNC(=O)NCc2ccccc2)cc1` [BMU, reference compound], the IC50 in data set [1] came out at 0.182 µM.
Take `O=C(NCc1ccccc1)NCc1ccccc1` [Compound 1, 1,3-Dibenzylurea]: in data set [1], the IC50 was determined as 0.385 µM.
With `COc1cccc(CNC(=O)NCc2ccccc2)c1` [Compound 2, 1-Benzyl-3-(3-methoxybenzyl) urea], the IC50 amounted to 0.308 µM in data set [1] and 0.534 µM in data set [2] (setting [7]). Besides, the “lower potency on human sEH than compound 3” value in data set [2] is recorded as “approximately 2 fold”.
For `COc1cccc(CNC(=O)NCc2cccc(O)c2)c1` [Compound 6, 1-(3-Hydroxybenzyl)-3-(3-methoxybenzyl) urea], the “blood level of demethoxy metabolite after oral compound 3” value in data set [3] is on record as “detected at similar concentrations to compound 3”. Besides, the “Concentration of demethoxy metabolite” value in data set [4] is on record as “below 200 nM”. For the same molecule, the IC50 in data set [1] and in data set [2] (read-out: human sEH IC50) was 1.3 µM in each case.
Turning to `O=C(NCc1cccc(O)c1)NCc1cccc(O)c1` [Compound 7, 1,3-Bis(3-hydroxybenzyl)urea], in data set [3], the “blood level of demethoxy metabolite after oral compound 3” value is “not detected”. The “Concentration of demethoxy metabolite” value in data set [4] is listed as “below 200 nM”. For the same molecule, the concentration for half-maximal inhibition (IC50) in data set [1] worked out at 9.6 µM; in data set [2] (setting [8]) it was 2.7 µM.
As usually defined, the solubility is the concentration that dissolves in the medium under given conditions. The low end stands for a poorly soluble substance, the high end for a readily soluble substance. `O=C(NCCc1ccccc1)NCCc1ccccc1` [Compound 8, 1,3-Diphenethylurea]: the IC50 in data set [1] came to 0.071 µM; in data set [2] (setting [8]) it was 0.233 µM. The “sEH inhibitory potency in words” value in data set [2] is listed as “moderate sEH inhibitory potency”. Also, the concentration in solution in data set [5] (solubility) came to 33 ± 11 µM (≈ 8.86 µg/mL).
For the molecule `S=C(NCCc1ccccc1)NCCc1ccccc1` [Compound 9, 1,3-Diphenethylthiourea], the IC50 in data set [1] was 3.3 µM; in data set [2] (setting [7]), 2.4 µM; in data set [2] (setting [8]), 0.134 µM.
As for `O=C(NCCc1ccccc1)NCCc1ccc(O)cc1` [Compound 10, 1-(4-Hydroxyphenethyl)-3-phenethylurea], the IC50 in data set [1] worked out at 0.129 µM; in data set [2] (setting [7]), 0.134 µM; in data set [2] (setting [8]), 0.0716 µM. For the same molecule, in data set [2], the “sEH inhibitory potency in words” value is “slightly higher inhibitory potency on sEH than the parent”.
For the molecule `O=S(=O)(O)ON=C(CCc1ccccc1)SC1OC(CO)C(O)C(O)C1O` (stereo not shown) [Phenethyl glucosinolate, reference compound], the IC50 in data set [1] and in data set [2] (setting [7]) was greater than 10 µM in each case.
As to `S=C=NCCc1ccccc1` [Phenethyl isothiocyanate, reference compound], the IC50 in data set [1] and in data set [2] (setting [7]) was greater than 10 µM in each case.
On to `O=C(Nc1ccc(OC(F)(F)F)cc1)NC1CCN(C(=O)C2CC2)CC1` [TPCU, 1-(1-(Cyclopropanecarbonyl)piperidin-4-yl)-3-(4-(trifluoromethoxy)phenyl) urea], for which the “carrageenan-induced inflammatory pain (mechanical withdrawal threshold)” value in data set [6] is recorded as “significantly reduced”.
Consider `CCC(=O)N1CCC(NC(=O)Nc2ccc(OC(F)(F)F)cc2)CC1` [TPPU, 1-trifluoromethoxyphenyl-3-(1-propionylpiperidin-4-yl) urea, reference compound], for which the “oral availability, comparison” value in data set [3] (gavage, compound 3 and AEPU 10 mg/kg, TPPU 0.3 mg/kg) was “much higher bioavailability than compound 3”.
In the case of `CN1CC[C@]23c4c5ccc(O)c4O[C@H]2[C@@H](O)C=C[C@H]3[C@H]1C5` [morphine], the “carrageenan-induced inflammatory pain (mechanical withdrawal threshold)” value in data set [6] is “significantly reduced”.

The values above are taken from publication PMC5417501, “Occurrence of urea-based soluble epoxide hydrolase inhibitors from the plants in the order Brassicales” (PLoS ONE, 2017).
